≈ marks a conversion by molar mass, not a printed value.
Assays:
Heat shock protein HSP90 [1] = target: T1, Heat shock protein HSP90 (Homo sapiens, UniProt P07900+P08238); test: Inhibition of Hsp90 in human NCI-N87 cells assessed as Her2 degradation after 24 hrs by Western blot analysis; type: cell-based
[2] = Clearance in rat at 2.5 mg/kg, iv; type: ADME, organism-based; design: dose 2.5 mg/kg, route intravenous; settings: in vivo
Rattus norvegicus [3] = test: Dose normalized AUC in rat at 2.5 mg/kg, iv; type: ADME, organism-based; design: dose 2.5 mg/kg, route intravenous; settings: in vivo
[4] = Apparent permeability across MDCK cells; type: ADME, cell-based, Canis lupus familiaris; settings: dog
[5] = Half life in rat at 2.5 mg/kg, iv; type: ADME, organism-based; design: dose 2.5 mg/kg, route intravenous; settings: in vivo
[6] = Oral bioavailability in rat at 2.5 mg/kg; type: ADME, organism-based; settings: in vivo
Heat shock protein HSP90 [7] = target: T1, Heat shock protein HSP90; test: Displacement of biotinylated geldanamycin from human His-tagged Hsp90 by TR-FRET assay; type: protein assay
Rattus norvegicus [8] = test: Dose normalized AUC in rat at 5 mg/kg, iv; type: ADME, organism-based; design: dose 5 mg/kg, route intravenous; settings: in vivo
[9] = Half life in rat at 5 mg/kg, iv; type: ADME, organism-based; design: dose 5 mg/kg, route intravenous; settings: in vivo
[10] = Oral bioavailability in rat at 5 mg/kg; type: ADME, organism-based; settings: in vivo
[11] = Clearance in rat at 5 mg/kg, iv; type: ADME, organism-based; design: dose 5 mg/kg, route intravenous; settings: in vivo
Heat shock protein HSP90 [12] = target: T1, Heat shock protein HSP90; test: Inhibition of Hsp90 in human A549 cells assessed as Raf1 degradation after 24 hrs by Western blot analysis; type: cell-based
[13] = Drug metabolism in human liver microsomes at 15 uM after 30 mins; type: ADME, Microsome; settings: read-out: Drug metabolism
[14] = Kinetic solubility of the compound; type: physicochemical; settings: read-out: Kinetic_solubility

Row | Compound | IC50 (Heat shock protein HSP90 [1]) | clearance [2] | AUC/dose (Rattus norvegicus [3]) | Papp [4] | half-life [5] | bioavailability [6] | IC50 (Heat shock protein HSP90 [7]) | IC50 (Heat shock protein HSP90 [12]) | further results
1 | CC[C@H](C)Nc1cc(C(=O)NC2CC3CCC(C2)N3c2ccc(C(=O)C3CC3)cn2)c(C)cc1C(N)=O (stereo partly drawn) | 252 nM | 38.5 mL/min/kg | 0.87 µM·kg·h/mg | 24 ×10⁻⁶ cm/s | 1 h | 20% |  |  | 
2 | CCC(CC)Nc1cc(C(=O)NC2CC3CCC(C2)N3c2ccc(C(=O)C3CC3)cn2)c(C)cc1C(N)=O (stereo not drawn) | 82 nM | 30.8 mL/min/kg | 1.04 µM·kg·h/mg | 14.3 ×10⁻⁶ cm/s | 1.8 h | 29% | 25 nM |  | 
3 | CCC(CC)Nc1cc(C(=O)NC2CC3CCC(C2)N3c2ccc(C(=O)C3CC3)cn2)ccc1C(N)=O (stereo not drawn) | 117 nM |  |  | 14.1 ×10⁻⁶ cm/s |  |  | 86 nM |  | AUC/dose (Rattus norvegicus [8]): 0.78 µM·kg·h/mg; half-life [9]: 0.5 h; bioavailability [10]: 11%; clearance [11]: 39.7 mL/min/kg
4 | CCNC(=O)c1ccc(N2C3CCC2CC(NC(=O)c2ccc(C(N)=O)c(NCC4CC4)c2)C3)nc1 (stereo not drawn) | 2170 nM |  |  | 32.4 ×10⁻⁶ cm/s |  |  | 104 nM |  | 
5 | Cc1cc(C(N)=O)c(NC2CCCC2)cc1C(=O)NC1CC2CCC(C1)N2c1ccc(C(=O)C2CC2)cn1 (stereo not drawn) | 316 nM | 14.5 mL/min/kg | 2.26 µM·kg·h/mg | 14.6 ×10⁻⁶ cm/s | 1.1 h | 28% | 27 nM |  | 
6 | Cc1cc(C(=O)NC2CC3CCC(C2)N3c2ccc(C(=O)N[C@@H](C)c3ccc(N4CCN(C)CC4)cc3)cn2)c(C)cc1C(N)=O (stereo partly drawn) |  |  |  | < 0.01 ×10⁻⁶ cm/s |  |  | 53 nM | 2900 nM | 
7 | O=C(NCc1ccccc1)c1ccc(N2C3CCC2CC(NC(=O)c2ccc(CO)cc2)C3)nc1 (stereo not drawn) |  |  |  | 2.5 ×10⁻⁶ cm/s |  |  | 322 nM | 5400 nM | 
8 | COc1cccc(C(=O)NC2CC3CCC(C2)N3c2ccc(C(=O)N[C@H](C)c3ccccc3)cn2)c1C (stereo partly drawn) |  |  |  |  |  |  | 7450 nM | > 10000 nM | 
9 | CCC(CC)Nc1cc(C(=O)NC2CC3CCC(C2)N3c2ccc(C(C)=O)cn2)c(C)cc1C(N)=O (stereo not drawn) | 44 nM |  |  |  |  |  | 28 nM |  | AUC/dose (Rattus norvegicus [8]): 0.6 µM·kg·h/mg; half-life [9]: 1.7 h; bioavailability [10]: 4%; clearance [11]: 51.8 mL/min/kg
10 | C[C@H](NC(=O)c1ccc(N2C3CCC2CC(NC(=O)c2ccc(C(N)=O)c(NC4CCC4)c2)C3)nc1)c1ccc(N2CCN(C)CC2)cc1 (stereo partly drawn) |  |  |  | 0.46 ×10⁻⁶ cm/s |  |  | 160 nM | 59 nM | 
11 | CC(=O)c1ccc(N2C3CCC2CC(NC(=O)c2ccc(C(N)=O)c(NCC4CC4)c2)C3)nc1 (stereo not drawn) | 182 nM | 71.5 mL/min/kg | 0.5 µM·kg·h/mg | 44.2 ×10⁻⁶ cm/s | 7 h | 42% | 40 nM |  | 
12 | CCC(CC)Nc1cc(C(=O)NC2CC3CCC(C2)N3c2ccc(C(C)=O)cn2)ccc1C(N)=O (stereo not drawn) | 52 nM |  |  | 67.6 ×10⁻⁶ cm/s |  |  | 38 nM |  | AUC/dose (Rattus norvegicus [8]): 1.22 µM·kg·h/mg; half-life [9]: 0.5 h; bioavailability [10]: 5%; clearance [11]: 28.5 mL/min/kg
13 | C[C@H](NC(=O)c1ccc(N2C3CCC2CC(NC(=O)c2ccc(C(N)=O)c(Nc4ccccc4)c2)C3)nc1)c1ccc(N2CCN(C)CC2)cc1 (stereo partly drawn) |  |  |  | 0.32 ×10⁻⁶ cm/s |  |  | 260 nM | 105 nM | 
14 | NC(=O)c1ccc(C(=O)NC2CC3CCC(C2)N3c2ccc(C(=O)C3CC3)cn2)cc1NCC1CC1 (stereo not drawn) | 494 nM | 8.43 mL/min/kg | 3.7 µM·kg·h/mg | 50.3 ×10⁻⁶ cm/s | 22 h | 41% | 120 nM |  | 
15 | Cc1cc(C(N)=O)ccc1C(=O)NC1CC2CCC(C1)N2c1ccc(C(=O)NCc2ccccc2)cn1 (stereo not drawn) |  |  |  | 0.21 ×10⁻⁶ cm/s |  |  | 598 nM | 2700 nM | 
16 | CC(C)C(=O)c1ccc(N2C3CCC2CC(NC(=O)c2ccc(C(N)=O)c(NCC4CC4)c2)C3)nc1 (stereo not drawn) | 1610 nM |  |  |  |  |  | 1140 nM |  | 
17 | Cc1cc(C(N)=O)c(NCC2CC2)cc1C(=O)NC1CC2CCC(C1)N2c1ccc(C(=O)C2CC2)cn1 (stereo not drawn) | 245 nM | 19.7 mL/min/kg | 1.7 µM·kg·h/mg | 22.3 ×10⁻⁶ cm/s | 0.9 h | 51% | 25 nM |  | 
18 | Cc1cc(C(N)=O)c(NC(C)C)cc1C(=O)NC1CC2CCC(C1)N2c1ccc(C(=O)C2CC2)cn1 (stereo not drawn) | 130 nM | 63.2 mL/min/kg | 0.57 µM·kg·h/mg | 20.6 ×10⁻⁶ cm/s | 1.5 h | 33% | 21 nM |  | 
19 | COc1cccc(C(=O)NC2CC3CCC(C2)N3c2ccc(C(=O)N[C@@H](C)c3ccccc3)cn2)c1C (stereo partly drawn) |  |  |  | 38 ×10⁻⁶ cm/s |  |  | 126 nM | 421 nM | metabolised at 0.5 h, 15 µM [13]: 68%; solubility kinetic [14]: 2.2 µM (≈ 1.1 µg/mL)
20 | NC(=O)c1ccc(C(=O)NC2CC3CCC(C2)N3c2ccc(C(=O)NC3CCCC3)cn2)cc1NCC1CC1 (stereo not drawn) | 351 nM | 63.5 mL/min/kg | 0.49 µM·kg·h/mg | 4.8 ×10⁻⁶ cm/s | 0.6 h | 0% | 89 nM |  | 
21 | NC(=O)c1ccc(C(=O)NC2CC3CCC(C2)N3c2ccc(C(=O)NCc3ccccc3)cn2)cc1 (stereo not drawn) |  |  |  | 0.06 ×10⁻⁶ cm/s |  |  | 445 nM | 5200 nM | 
22 | CCCNc1cc(C(=O)NC2CC3CCC(C2)N3c2ccc(C(=O)C3CC3)cn2)c(C)cc1C(N)=O (stereo not drawn) | 1122 nM |  |  | 23.4 ×10⁻⁶ cm/s |  |  | 24 nM |  | 
23 | Cc1cc(CO)ccc1C(=O)NC1CC2CCC(C1)N2c1ccc(C(=O)NCc2ccccc2)cn1 (stereo not drawn) |  |  |  | 3 ×10⁻⁶ cm/s |  |  | 128 nM | 1900 nM | 
24 | Cc1cc(C(=O)NC2CC3CCC(C2)N3c2ccc(C(=O)NCc3ccccc3)cn2)c(C)cc1C(N)=O (stereo not drawn) |  |  |  | 3 ×10⁻⁶ cm/s |  |  |  | > 10000 nM | 

Reference: ChEMBL document CHEMBL2203134, “Discovery of XL888: a novel tropane-derived small molecule inhibitor of HSP90” (Bioorg Med Chem Lett, 2012)
